Patent US7750003B2, “Compounds-943” (AstraZeneca AB, priority 2006, dated 2010)

Biological target: recombinant mTOR (FLAG-tagged, residues 1362-2549) (Homo sapiens, UniProt P42345)
Assay: In vitro mTOR kinase assay (Test (a), AlphaScreen)
Assay type: biochemical
Details: ATP 20 μM, read-out: Test (a): IC50 versus mTOR kinase
Description: (a) In Vitro mTOR Kinase Assay
Following expression in the mammalian HEK293 cell line, expressed protein was purified using the FLAG epitope tag using standard purification techniques.
Aliquots (2 μl) of each compound dilution were placed into a well of a Greiner 384-well low volume (LV) white polystyrene plate (Greiner Bio-one).
These assay solutions were incubated for 2 hours at room temperature.
The resultant signals arising from laser light excitation at 680 nm were read using a Packard Envision instrument.
The phosphorylated biotinylated peptide that is associated with AlphaScreen Streptavidin donor beads forms a complex with the p70 S6 Kinase (T389) 1A5 Monoclonal Antibody that is associated with Alphascreen Protein A acceptor beads. Upon laser light excitation at 680 nm, the donor bead: acceptor bead complex produces a signal that can be measured. Accordingly, the presence of mTOR kinase activity results in an assay signal. In the presence of an mTOR kinase inhibitor, signal strength is reduced.
mTOR enzyme inhibition for a given test compound was expressed as an IC50 value.

recombinant mTOR (FLAG-tagged, residues 1362-2549), sequence (P42345 1362-2549): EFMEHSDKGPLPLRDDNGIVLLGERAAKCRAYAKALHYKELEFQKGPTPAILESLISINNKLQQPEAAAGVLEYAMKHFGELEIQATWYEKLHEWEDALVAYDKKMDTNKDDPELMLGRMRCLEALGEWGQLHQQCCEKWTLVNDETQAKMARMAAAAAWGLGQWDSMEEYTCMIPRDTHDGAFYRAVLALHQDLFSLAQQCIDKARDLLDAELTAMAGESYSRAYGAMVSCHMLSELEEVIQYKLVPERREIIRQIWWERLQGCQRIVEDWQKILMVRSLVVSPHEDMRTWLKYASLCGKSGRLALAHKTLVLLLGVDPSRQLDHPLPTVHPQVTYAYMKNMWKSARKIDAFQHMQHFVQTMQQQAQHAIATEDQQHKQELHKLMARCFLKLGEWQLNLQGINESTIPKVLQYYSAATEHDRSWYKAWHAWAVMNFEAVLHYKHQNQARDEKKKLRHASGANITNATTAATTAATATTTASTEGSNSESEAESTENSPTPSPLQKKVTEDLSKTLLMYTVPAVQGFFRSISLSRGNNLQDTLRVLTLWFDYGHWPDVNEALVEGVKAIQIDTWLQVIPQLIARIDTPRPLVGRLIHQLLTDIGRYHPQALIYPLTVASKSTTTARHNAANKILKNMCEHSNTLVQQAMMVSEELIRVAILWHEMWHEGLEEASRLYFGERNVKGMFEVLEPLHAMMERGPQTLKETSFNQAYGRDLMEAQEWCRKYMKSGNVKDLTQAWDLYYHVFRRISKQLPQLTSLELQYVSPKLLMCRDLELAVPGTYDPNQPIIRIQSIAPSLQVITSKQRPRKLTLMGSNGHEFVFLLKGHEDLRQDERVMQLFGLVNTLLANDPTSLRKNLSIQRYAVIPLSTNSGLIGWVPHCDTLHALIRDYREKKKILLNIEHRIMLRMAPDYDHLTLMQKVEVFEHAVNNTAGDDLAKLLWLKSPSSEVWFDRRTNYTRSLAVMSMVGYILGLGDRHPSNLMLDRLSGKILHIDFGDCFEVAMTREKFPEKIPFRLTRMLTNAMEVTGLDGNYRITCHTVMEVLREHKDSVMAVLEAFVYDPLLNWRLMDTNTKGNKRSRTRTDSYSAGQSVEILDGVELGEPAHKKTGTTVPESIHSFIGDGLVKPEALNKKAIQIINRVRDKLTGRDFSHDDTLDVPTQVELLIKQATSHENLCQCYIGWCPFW

Compound | IC50 [nM]
C[C@H]1COCCN1c1cc(CS(=O)(=O)CC(N)=O)nc(-c2ccc(NC(=O)N(C)C)cc2)n1 [Example 17, 2-[[2-[4-(Dimethylcarbamoylamino)phenyl]-6-[(3S)-3-methylmorpholin-4-yl]pyrimidin-4-yl]methylsulfonyl]acetamide] | 1100
CNC(=O)Nc1ccc(-c2nc(CO)cc(N3CCOC[C@@H]3C)n2)cc1 [Example 18, 1-[4-[4-(Hydroxymethyl)-6-[(3S)-3-methylmorpholin-4-yl]pyrimidin-2-yl]phenyl]-3-methyl-urea] | 120
CNC(=O)Nc1ccc(-c2nc(CS(=O)(=O)C3CCCCC3)cc(N3CCOC[C@@H]3C)n2)cc1 [Example 19, 1-[4-[4-(Cyclohexylsulfonylmethyl)-6-[(3S)-3-methylmorpholin-4-yl]pyrimidin-2-yl]phenyl]-3-methyl-urea] | 250
CNC(=O)Nc1ccc(-c2nc(CS(=O)(=O)c3ccccc3)cc(N3CCOC[C@@H]3C)n2)cc1 [Example 19a, 1-[4-[4-(benzenesulfonylmethyl)-6-[(3S)-3-methylmorpholin-4-yl]pyrimidin-2-yl]phenyl]-3-methyl-urea] | 4.7
CNC(=O)Nc1ccc(-c2nc(CS(=O)(=O)c3ccc(F)cc3)cc(N3CCOC[C@@H]3C)n2)cc1 [Example 19b, 1-[4-[4-[(4-fluorophenyl)sulfonylmethyl]-6-[(3S)-3-methylmorpholin-4-yl]pyrimidin-2-yl]phenyl]-3-methyl urea] | 33
CNC(=O)Nc1ccc(-c2nc(CS(=O)(=O)c3ccc(NC(C)=O)cc3)cc(N3CCOC[C@@H]3C)n2)cc1 [Example 19c, N-[4-[[2-[4-(methylcarbamoylamino)phenyl]-6-[(3S)-3-methylmorpholin-4-yl]pyrimidin-4-yl]methylsulfonyl]phenyl]acetamide] | 22
CNC(=O)Nc1ccc(-c2nc(CS(=O)(=O)C(C)C)cc(N3CCOC[C@@H]3C)n2)cc1 [Example 19d, 3-methyl-1-[4-[4-[(3S)-3-methylmorpholin-4-yl]-6-(propan-2-ylsulfonylmethyl)pyrimidin-2-yl]phenyl]urea] | 66
CNC(=O)Nc1ccc(-c2nc(CS(=O)(=O)CCO)cc(N3CCOC[C@@H]3C)n2)cc1 [Example 19e, 1-[4-[4-(2-hydroxyethylsulfonylmethyl)-6-[(3S)-3-methylmorpholin-4-yl]pyrimidin-2-yl]phenyl]-3-methyl-urea] | 11
CNC(=O)Nc1ccc(-c2nc(CS(=O)(=O)c3ccccc3)cc(N3CCOCC3)n2)cc1 [Example 20, 3-[4-[4-(Benzenesulfonylmethyl)-6-morpholin-4-yl-pyrimidin-2-yl]phenyl]-1-methyl-urea] | 43
CCNC(=O)Nc1ccc(-c2nc(CS(=O)(=O)c3ccccc3)cc(N3CCOCC3)n2)cc1 [Example 20a, 3-[4-[4-(benzenesulfonylmethyl)-6-morpholin-4-yl-pyrimidin-2-yl]phenyl]-1-ethyl-urea] | 150
O=C(Nc1ccc(-c2nc(CS(=O)(=O)c3ccccc3)cc(N3CCOCC3)n2)cc1)NC1CC1 [Example 20b, 1-[4-[4-(benzenesulfonylmethyl)-6-morpholin-4-yl-pyrimidin-2-yl]phenyl]-3-cyclopropyl-urea] | 170
CN(C)CCNC(=O)Nc1ccc(-c2nc(CS(=O)(=O)c3ccccc3)cc(N3CCOCC3)n2)cc1 [Example 20c, 3-[4-[4-(benzenesulfonylmethyl)-6-morpholin-4-yl-pyrimidin-2-yl]phenyl]-1-(2-dimethylaminoethyl)urea] | 1000
CN1CCC(NC(=O)Nc2ccc(-c3nc(CS(=O)(=O)c4ccccc4)cc(N4CCOCC4)n3)cc2)CC1 [Example 20d, 3-[4-[4-(benzenesulfonylmethyl)-6-morpholin-4-yl-pyrimidin-2-yl]phenyl]-1-(1-methyl-4-piperidyl)urea] | 1600
COCCNC(=O)Nc1ccc(-c2nc(CS(=O)(=O)c3ccccc3)cc(N3CCOCC3)n2)cc1 [Example 20e, 3-[4-[4-(benzenesulfonylmethyl)-6-morpholin-4-yl-pyrimidin-2-yl]phenyl]-1-(2-methoxyethyl)urea] | 2100
CCNC(=O)Nc1ccc(-c2nc(CS(=O)(=O)c3ccccc3)cc(N3CCOC[C@@H]3C)n2)cc1 [Example 20f, 3-[4-[4-(benzenesulfonylmethyl)-6-[(3S)-3-methylmorpholin-4-yl]pyrimidin-2-yl]phenyl]-1-ethyl-urea] | 35
C[C@H]1COCCN1c1cc(CS(=O)(=O)c2ccccc2)nc(-c2ccc(NC(=O)NC3CC3)cc2)n1 [Example 20g, 1-[4-[4-(benzenesulfonylmethyl)-6-[(3S)-3-methylmorpholin-4-yl]pyrimidin-2-yl]phenyl]-3-cyclopropyl-urea] | 39

Compound | IC50 [nM]
C[C@H]1COCCN1c1cc(CS(=O)(=O)c2ccccc2)nc(-c2ccc(NC(=O)NCCN(C)C)cc2)n1 [Example 20h, 1-[4-[4-(benzenesulfonylmethyl)-6-[(3S)-3-methylmorpholin-4-yl]pyrimidin-2-yl]phenyl]-3-(2-dimethylaminoethyl)urea] | 440
C[C@H]1COCCN1c1cc(CS(=O)(=O)c2ccccc2)nc(-c2ccc(NC(=O)NC3CCN(C)CC3)cc2)n1 [Example 20i, 1-[4-[4-(benzenesulfonylmethyl)-6-[(3S)-3-methylmorpholin-4-yl]pyrimidin-2-yl]phenyl]-3-(1-methyl-4-piperidyl)urea] | 700
COCCNC(=O)Nc1ccc(-c2nc(CS(=O)(=O)c3ccccc3)cc(N3CCOC[C@@H]3C)n2)cc1 [Example 20j, 1-[4-[4-(benzenesulfonylmethyl)-6-[(3S)-3-methylmorpholin-4-yl]pyrimidin-2-yl]phenyl]-3-(2-methoxyethyl)urea] | 750
CNC(=O)Nc1ccc(-c2nc(CS(=O)(=O)C(C)C)cc(N3CCOCC3)n2)cc1 [Example 20k, 3-methyl-1-[4-[4-morpholin-4-yl-6-(propan-2-ylsulfonylmethyl)pyrimidin-2-yl]phenyl]urea] | 36
CCNC(=O)Nc1ccc(-c2nc(CS(=O)(=O)C(C)C)cc(N3CCOCC3)n2)cc1 [Example 20l, 1-ethyl-3-[4-[4-morpholin-4-yl-6-(propan-2-ylsulfonylmethyl)pyrimidin-2-yl]phenyl]urea] | 74
CC(C)S(=O)(=O)Cc1cc(N2CCOCC2)nc(-c2ccc(NC(=O)NC3CC3)cc2)n1 [Example 20m, 3-cyclopropyl-1-[4-[4-morpholin-4-yl-6-(propan-2-ylsulfonylmethyl)pyrimidin-2-yl]phenyl]urea] | 81
CC(C)S(=O)(=O)Cc1cc(N2CCOCC2)nc(-c2ccc(NC(=O)NCCN(C)C)cc2)n1 [Example 20n, 3-(2-dimethylaminoethyl)-1-[4-[4-morpholin-4-yl-6-(propan-2-ylsulfonylmethyl)pyrimidin-2-yl]phenyl]urea] | 860
CC(C)S(=O)(=O)Cc1cc(N2CCOCC2)nc(-c2ccc(NC(=O)NC3CCN(C)CC3)cc2)n1 [Example 20o, 3-(1-methyl-4-pipendyl)-1-[4-[4-morpholin-4-yl-6-(propan-2-ylsulfonylmethyl)pyrimidin-2-yl]phenyl]urea] | 1300
COCCNC(=O)Nc1ccc(-c2nc(CS(=O)(=O)C(C)C)cc(N3CCOCC3)n2)cc1 [Example 20p, 3-(2-methoxyethyl)-1-[4-[4-morpholin-4-yl-6-(propan-2-ylsulfonylmethyl)pyrimidin-2-yl]phenyl]urea] | 910
CCNC(=O)Nc1ccc(-c2nc(CS(=O)(=O)C(C)C)cc(N3CCOC[C@@H]3C)n2)cc1 [Example 20q, 1-ethyl-3-[4-[4-[(3S)-3-methylmorpholin-4-yl]-6-(propan-2-ylsulfonylmethyl)pyrimidin-2-yl]phenyl]urea] | 39
CC(C)S(=O)(=O)Cc1cc(N2CCOC[C@@H]2C)nc(-c2ccc(NC(=O)NC3CC3)cc2)n1 [Example 20r, 3-cyclopropyl-1-[4-[4-[(3S)-3-methylmorpholin-4-yl]-6-(propan-2-ylsulfonylmethyl)pyrimidin-2-yl]phenyl]urea] | 94
CC(C)S(=O)(=O)Cc1cc(N2CCOC[C@@H]2C)nc(-c2ccc(NC(=O)NCCN(C)C)cc2)n1 [Example 20s, 3-(2-dimethylaminoethyl)-1-[4-[4-[(3S)-3-methylmorpholin-4-yl]-6-(propan-2-ylsulfonylmethyl)pyrimidin-2-yl]phenyl]urea] | 620
CC(C)S(=O)(=O)Cc1cc(N2CCOC[C@@H]2C)nc(-c2ccc(NC(=O)NC3CCN(C)CC3)cc2)n1 [Example 20t, 1-[4-[4-[(3S)-3-methylmorpholin-4-yl]-6-(propan-2-ylsulfonylmethyl)pyrimidin-2-yl]phenyl]-3-(1-methyl-4-piperidyl)urea] | 600
COCCNC(=O)Nc1ccc(-c2nc(CS(=O)(=O)C(C)C)cc(N3CCOC[C@@H]3C)n2)cc1 [Example 20u, 3-(2-methoxyethyl)-1-[4-[4-[(3S)-3-methylmorpholin-4-yl]-6-(propan-2-ylsulfonylmethyl)pyrimidin-2-yl]phenyl]urea] | 270
CNC(=O)Nc1ccc(-c2nc(N3CCOCC3)cc(C(C)(C)S(C)(=O)=O)n2)cc1 [Example 21, 3-Methyl-1-[4-[4-(2-methylsulfonylpropan-2-yl)-6-morpholin-4-yl-pyrimidin-2-yl]phenyl]urea] | 50
CCNC(=O)Nc1ccc(-c2nc(N3CCOCC3)cc(C(C)(C)S(C)(=O)=O)n2)cc1 [Example 21a, 1-ethyl-3-[4-[4-(2-methylsulfonylpropan-2-yl)-6-morpholin-4-yl-pyrimidin-2-yl]phenyl]urea] | 730
